# From publication PMC12871931, “The importin‐alpha superfamily engages in ethylene signaling by shuttling [sequence] INSENSITIVE 2 from the endoplasmic reticulum to the nucleus” (The Febs Journal, 2025)
# What was measured:
# EIN2C^479–1294 = assay: In planta FLIM‐FRET, EIN2C^479–1294‐CER donor, IMPα‐YFP acceptors; format: cell-based, Arabidopsis thaliana; conditions: mean, EIN2C^479–1294‐CER donor / IMPα‐YFP acceptor, N. benthamiana epidermal leaf cells
# Description: To further investigate the interaction between members of the IMPα superfamily and EIN2 in planta, we used in vivo fluorescence lifetime microscopy and Förster's resonance energy transfer (FLIM‐FRET). Accordingly, the C‐terminal part of EIN2 (EIN2C^479–1294) was fused to the fluorescent protein Cerulean (CER), serving as a donor, and the IMPα isoforms (IMPα1‐7) were fused to YELLOW FL[…] (YFP), serving as acceptors.
# A modified version of a previously described procedure was used for the transient transformation of N. benthamiana. An overnight culture of agrobacteria was inoculated in DYT and incubated at 28°C one day before infiltration. […] For co‐infiltration, bacteria solutions were mixed in equal quantities, and Agrobacterium strain GV3101:p19 expressing the p19 silencing inhibitor was added to each mix. […]
# Fluorescence lifetime imaging was performed using a protocol described previously. Fluorescence lifetime was measured at a Zeiss LSM 780 confocal microscope (40× water immersion objective, Zeiss C‐PlanApo, NA 1.2). […] Photons were detected in both donor and acceptor channels simultaneously with Tau‐SPADs (PicoQuant, Berlin, Germany). […] Internal response functions for each laser were determined by measuring the fluorescence decay of quenched Atto425 in saturated KI, using the same hardware settings as for the FRET pair of interest. […]
# IMPα7_ΔIBB = target: T1, IMPα7_ΔIBB (Arabidopsis thaliana, UniProt Q9M9X7); assay: biochemical; format: binding
# T1 construct: hexa-His (TEV site between protein and tag) (C); made in house; host or cells: E. coli BL21gold
# T1 sequence (Q9M9X7 57-528, stated change not applied): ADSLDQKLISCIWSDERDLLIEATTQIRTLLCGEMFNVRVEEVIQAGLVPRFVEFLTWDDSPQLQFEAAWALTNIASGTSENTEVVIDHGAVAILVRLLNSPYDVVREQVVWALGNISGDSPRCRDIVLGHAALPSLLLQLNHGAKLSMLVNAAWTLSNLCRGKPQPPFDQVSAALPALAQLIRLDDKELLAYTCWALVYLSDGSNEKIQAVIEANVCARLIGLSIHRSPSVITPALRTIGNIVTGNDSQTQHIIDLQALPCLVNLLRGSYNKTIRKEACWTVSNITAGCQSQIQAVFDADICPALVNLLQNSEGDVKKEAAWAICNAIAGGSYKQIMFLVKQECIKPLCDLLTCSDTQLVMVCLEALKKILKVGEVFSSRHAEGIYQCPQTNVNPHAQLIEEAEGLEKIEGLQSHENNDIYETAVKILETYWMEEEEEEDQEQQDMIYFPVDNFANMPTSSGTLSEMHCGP
# Description: Genes encoding several isoforms of the IMPα superfamily were either isolated from Arabidopsis thaliana (IMPα1, ‐2, ‐3, ‐4, ‐8) or synthetically produced by GenScript (IMPα5, ‐6, ‐7, ‐9) and cloned into the pETEV21a vector (modified version of the pET21a vector with an additional TEV cleavage site between the GOI and the His‐tag), which contains a C‐terminal hexa‐His‐tag. Only IMPα5 was additionally cloned into the pETEV16b vector (modified version of the pET16b vector with an additional TEV cleavage site between the GOI and the His‐tag), which contains an N‐terminal deca‐His‐tag (see Table S2 for primer list). The AtEIN2C^1215–1281 gene was cloned into the pETEV16b vector and additionally contained a GB1‐domain at the N terminus to enhance solubility. Most of the proteins were expressed in the E. coli BL21pRARE strain, while IMPα7, IMPα8, and ΔIBB_IMPα1 (lack of the IBB domain) were expressed using the E. coli BL21gold strain. The bacterial cultures were adjusted to an initial OD600 of 0.1 and grown in 2YT media at 37 °C until an OD600 between 0.6 and 0.8 was reached. Subsequently, the protein expression was induced with 0.5 mM IPTG. After two hours, the cells were harvested via centrifugation at 10,000 g for 10 min. IMPα5, IMPα6, IMPα7, IMPα8, ΔIBB_IMPα1, and GB1_AtEIN2C^1215–1281 were expressed at 16 °C overnight with the addition of 2% (v/v) ethanol. […]
# [1] = system: Col‐0 (wild‐type) seedlings; assay: Triple response assay, wild‐type; format: in vivo, Arabidopsis thaliana; conditions: dark‐grown, vs w/o ACC
# Experimental: Around 10 mg of seeds was filled into a 2‐mL reaction tube and put into a desiccator with the lid opened. Additionally, a beaker with 100 mL 37% perchloric acid was put into the desiccator. 3 mL of 37% hydrochloric acid was pipetted into the beaker to start the reaction, and the lid of the desiccator was closed immediately. The seeds were incubated for 1 h. After the incubation time, the lid of the desiccator was opened slightly, while the tubes were incubated for 20 more minutes to wait for the gas to evaporate. 1 mL of sterile water was added to the reaction tubes, and the seeds were stratified by storage at 4 °C for 3 days before planting (otherwise they can be planted directly after this procedure). Before starting to plant the seeds, any material (e.g., pots and tubs) was sterilized with 70% ethanol. A mixture of soil, vermiculite, and sand (ratio 8:1:1) was prepared, and water was added in the right proportion to make the soil mix soggy but not mushy. The soil mix was sterilized by heating it in the microwave at 800 W for about 10 min. Pots were filled with the sterilized soil mix afterwards. Around 100 μL of 1% agarose in tap water was added to the reaction tubes containing the sterilized seedlings for better pipetting precision, and the seeds were planted into the soil mix. The growth of A. thaliana was performed at 22 °C, 60% humidity, and 100–120 μEinstein light intensity. The plants were watered only from the bottom every 2–3 days. After 5 weeks, the plants were big enough to grow in their own pots instead of several plants being grown crowded in one pot.
# The triple response media for the agar plates was prepared by mixing 0.43% (w/v) of Murashige and Skoog (MS) salts and 1% (w/v) sucrose. The pH is adjusted to 6.0 before adding 0.7% (w/v) plant agar to the media and autoclaving it at 121 °C for 30 min. […] The seedlings were documented, and the length of the hypocotyl was analyzed using a binocular microscope and the software Motion 3.0, respectively. […]
# [2] = system: triple impα loss‐of‐function mutant seedlings; assay: Triple response assay, triple impα mutants; format: in vivo, Arabidopsis thaliana; conditions: 0.1 μM ACC, at least 20 seedlings per condition
# Experimental: To gain further insights into the role of the IMPα superfamily for ethylene signaling, we studied multiple higher order IMPα loss‐of‐function mutants (Fig. 2). […] To check for potential differences in ethylene sensitivity, we supplemented the experiments from Fig. 2B with 0.1 and 1 μM ACC (Fig. 2C). […] These findings indicate that the mutation of three IMPα isoforms leads to diminished sensitivity in ethylene perception, supporting the pivotal role of the IMPα superfamily in ethylene signaling. However, no differences in ethylene sensing were observed among the various triple mutants, further reinforcing the hypothesis of IMPα redundancy in EIN2 transport. The deletion of an excessive number of IMPα isoforms is likely to have detrimental effects on regular plant growth and development, which has already been observed in the triple mutants (impα‐1;impα‐2;impα‐3). Due to the pivotal role of the IMPα‐IMPβ machinery in the nuclear transport of a large number of cargo proteins, we adopted an alternative strategy to investigate the role of IMPα proteins in plant ethylene signal transduction by testing their physical interaction with the ethylene key regulator EIN2.
# (§1) Around 10 mg of seeds was filled into a 2‐mL reaction tube and put into a desiccator with the lid opened. Additionally, a beaker with 100 mL 37% perchloric acid was put into the desiccator. […]
# [3] = system: ein2‐1 loss‐of‐function mutant seedlings; assay: Triple response assay, ethylene‐insensitive mutant; format: in vivo, Arabidopsis thaliana; conditions: ein2‐1, dark‐grown, ACC in agar vs w/o ACC
# Description: In the presence of ethylene, dark‐grown seedlings display the characteristic phenotypic responses known as triple response. We hypothesized that nucleocytoplasmic transport and nuclear import of the EIN2 cytosolic part (CEND), which bridges ethylene signal transduction from the ER membrane to the nucleus, are mediated by the IMPα‐IMPβ transport machinery. This hypothesis is supported by the previously identified NLS motif in the EIN2 C terminus. To investigate whether any of the IMPα isoforms are implicated in ethylene signaling, A. thaliana Col‐0 (wild‐type; positive control), single loss‐of‐function mutants of the IMPα isoforms (impα1‐impα9) obtained from the Nottingham Arabidopsis Stock Centre (NASC), and ethylene‐insensitive mutant ein2‐1 (negative control) were grown in the dark in the presence of the ethylene precursor 1‐aminocyclopropane‐1‐carboxylate (ACC) and subsequently analyzed for their triple response. […] The findings on the single impα mutants indicate that nucleocytoplasmic transport and nuclear import of EIN2 CEND cannot be attributed to a single IMPα isoform, possibly because of functional redundancy among the IMPα isoforms.
# as §1
compound,measurement,setting,value
"IMPα4: A. thaliana IMPα4 fused to YFP, FRET acceptor",FRET efficiency,EIN2C^479–1294,4.6%
CC(C)C[C@H](NC(=O)[C@H](CCCNC(=N)N)NC(=O)[C@H](CCCNC(=N)N)NC(=O)[C@H](CCCCN)NC(=O)[C@H](Cc1ccc(O)cc1)NC(=O)[C@H](CCCNC(=N)N)NC(=O)[C@H](CCCCN)NC(=O)[C@H](CC(C)C)NC(=O)c1ccc2c(c1)C(=O)OC21c2ccc(N(C)C)cc2Oc2cc(N(C)C)ccc21)C(=O)O [TAMRA‐NOP‐1],Kd,IMPα7_ΔIBB,3 ± 0.3 µM
"NC1(C(=O)O)CC1 [ACC, 1‐aminocyclopropane‐1‐carboxylic acid]",reduction in hypocotyl length,"[1]; Col‐0, 0.1 μM ACC",21%
same,reduction in hypocotyl length,"[1]; Col‐0, 1 μM ACC",55.5%
same,reduction in hypocotyl length,"[1]; Col‐0, 10 μM ACC",56.5%
same,reduction in hypocotyl length (maximum among triple mutants),[2],≤ 7.5%
same,decrease in hypocotyl length,[3],10%
